Values of other authors, collected in patent US20100143341A1, “THIENOPYRIMIDINES FOR PHARMACEUTICAL COMPOSITIONS” (DEVELOGEN AKTIENGESELLSCHAFT, priority 2005, published 2010).

What was measured:
phosphorylated eIF4E = details: cell culture cells transfected with Mnk2 (Mnk2a or Mnk2b) or Mnk1
human Mnk2 protein = human Mnk2 protein (Homo sapiens, UniProt Q9HBH9); details: described in WO 02/103361
human Mnk2 protein, sequence (Q9HBH9 whole entry): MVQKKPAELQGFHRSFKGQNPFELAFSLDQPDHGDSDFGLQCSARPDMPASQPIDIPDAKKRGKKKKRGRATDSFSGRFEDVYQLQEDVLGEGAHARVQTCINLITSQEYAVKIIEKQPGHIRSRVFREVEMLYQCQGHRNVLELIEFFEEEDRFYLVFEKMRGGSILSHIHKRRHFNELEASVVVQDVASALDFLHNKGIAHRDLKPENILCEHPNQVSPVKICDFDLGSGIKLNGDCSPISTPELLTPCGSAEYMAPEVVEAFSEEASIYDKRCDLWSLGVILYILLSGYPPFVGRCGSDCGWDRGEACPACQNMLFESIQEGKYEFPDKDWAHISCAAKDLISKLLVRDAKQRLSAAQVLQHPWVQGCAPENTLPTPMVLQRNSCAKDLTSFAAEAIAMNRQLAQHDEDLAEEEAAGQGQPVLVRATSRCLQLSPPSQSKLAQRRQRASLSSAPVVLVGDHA

| Compound | reduction of phosphorylated eIF4E (phosphorylated eIF4E) | binds the human Mnk2 protein (human Mnk2 protein) |
| --- | --- | --- |
| Nc1ncnc2n[nH]c(Nc3ccc(F)cc3)c12 [CGP57380] | strong reduction | – |
| COC(=O)c1ccc(O)cc1 [4-hydroxybenzoic acid methyl ester] | – | binds |
